Each compound was assayed against T1, human CB2R (Homo sapiens, UniProt P34972) (assay: CB2R mediated modulation of cAMP synthesis). Conditions: CHO cells expressing human CB2R; decrease of forskolin induced cAMP; found 'through the use of the above described assays'.
T1 construct: host or cells: CHO cells
Assay type: cell-based
Procedure: B. CB2R Mediated Modulation of cAMP Synthesis:
CHO cells expressing human CB2R (Euroscreen) were plated at a density of 5000 cells per well in 384 well plates and incubated overnight at 37° C. After removing the media, the cells were treated with test compounds diluted in stimulation buffer containing 1 mM IBMX, 0.25% BSA and 10 uM Forskolin. The assay was incubated for 30 minutes at 37° C. Cells were lysed and the cAMP concentration was measured using DiscoverX-XS cAMP kit, following the manufacturer's protocol. In this setting, agonists will decrease forskolin induced production of cAMP while inverse agonists will further increase forskolin induced production of cAMP. EC50 of agonists were calculated as follows. The maximal amount of cAMP produced by forskolin compared to the level of cAMP inhibited by 1 uM CP55940 is defined as 100%. The EC50 value of each test compound was determined as the concentration at which 50% of the forskolin-stimulated cAMP synthesis was inhibited. Data was analyzed using a four-parameter logistic model. (Model 205 of XLfit 4.0).

T1 sequence (P34972 whole entry): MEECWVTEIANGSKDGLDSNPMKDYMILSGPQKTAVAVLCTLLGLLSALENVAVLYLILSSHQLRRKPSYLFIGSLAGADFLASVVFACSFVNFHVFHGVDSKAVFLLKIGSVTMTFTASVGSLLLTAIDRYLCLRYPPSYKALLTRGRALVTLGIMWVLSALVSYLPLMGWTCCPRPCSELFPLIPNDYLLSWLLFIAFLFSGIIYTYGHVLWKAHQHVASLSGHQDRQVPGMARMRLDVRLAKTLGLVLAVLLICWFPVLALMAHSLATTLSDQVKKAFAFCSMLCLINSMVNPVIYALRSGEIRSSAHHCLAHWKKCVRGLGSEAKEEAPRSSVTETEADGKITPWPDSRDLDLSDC

| SMILES | agonistic activity |
| --- | --- |
| Clc1ccccc1-c1ccc(CN2CCCC(c3ccccc3)C2)cc1 (centres unmarked) [1-(2′-Chloro-biphenyl-4-ylmethyl)-3-phenyl-piperidine] | agonistic activity |
| O=S(=O)(c1ccccc1)N1CCN(Cc2ccc(-c3ccccc3C(F)(F)F)cc2)CC1c1ccccc1 (centres unmarked) [1-Benzenesulfonyl-2-phenyl-4-(2′-trifluoromethyl-biphenyl-4-ylmethyl)-piperazine] | agonistic activity |
| FC(F)(F)c1ccccc1-c1ccc(CN2CCOC(c3ccccc3)C2)cc1 (centres unmarked) [2-Phenyl-4-(2′-trifluoromethyl-biphenyl-4-ylmethyl)-morpholine] | agonistic activity |
| c1ccc(C2CN(Cc3ccc(-c4ccccn4)cc3)CCO2)cc1 (centres unmarked) [2-Phenyl-4-(4-pyridin-2-yl-benzyl)-morpholine] | agonistic activity |
| c1ccc(C2CN(Cc3ccc(-c4ccsc4)cc3)CCO2)cc1 (centres unmarked) [2-Phenyl-4-(4-thiophen-3-yl-benzyl)-morpholine] | agonistic activity |
| FC(F)(F)c1ccccc1-c1ccc(CN2CCNC(Cc3ccccc3)C2)cc1 (centres unmarked) [3-Benzyl-1-(2′-trifluoromethyl-biphenyl-4-ylmethyl)-piperazine] | agonistic activity |
| FC(F)(F)c1ccccc1-c1ccc(CN2CCCC(c3ccccc3)C2)cc1 (centres unmarked) [3-Phenyl-1-(2′-trifluoromethyl-biphenyl-4-ylmethyl)-piperidine] | agonistic activity |
| Clc1cccc(-c2ccc(CN3CCOC(c4ccccc4)C3)cc2)c1Cl (centres unmarked) [4-(2′,3′-Dichloro-biphenyl-4-ylmethyl)-2-phenyl-morpholine] | agonistic activity |
| Cc1ccc(Cl)c(-c2ccc(CN3CCOC(c4ccccc4)C3)cc2)c1 (centres unmarked) [4-(2′-Chloro-5′-methyl-biphenyl-4-ylmethyl)-2-phenyl-morpholine] | agonistic activity |
| Clc1ccccc1-c1ccc(CN2CCOC(c3ccccc3)C2)cc1 (centres unmarked) [4-(2′-Chloro-biphenyl-4-ylmethyl)-2-phenyl-morpholine] | agonistic activity |
| CCOc1ccccc1-c1ccc(CN2CCOC(c3ccccc3)C2)cc1 (centres unmarked) [4-(2′-Ethoxy-biphenyl-4-ylmethyl)-2-phenyl-morpholine] | agonistic activity |
| FC(F)(F)c1ccccc1-c1ccc(CN2CCOCC2)cc1 [4-(2′-Trifluoromethyl-biphenyl-4-ylmethyl)-morpholine] | agonistic activity |
| Clc1sccc1-c1ccc(CN2CCOC(c3ccccc3)C2)cc1 (centres unmarked) [4-[4-(2-Chloro-thiophen-3-yl)-benzyl]-2-phenyl-morpholine] | agonistic activity |
| N#Cc1ccccc1-c1ccc(CN2CCOC(c3ccccc3)C2)cc1 (centres unmarked) [4′-(2-Phenyl-morpholin-4-ylmethyl)-biphenyl-2-carbonitrile] | agonistic activity |
| FC(F)(F)c1ccccc1-c1ccc(CN2CCO[C@@H](c3ccccc3)C2)cn1 [(S)-2-Phenyl-4-[6-(2-trifluoromethyl-phenyl)-pyridin-3-ylmethyl]-morpholine] | agonistic activity |
| Clc1cccc(-c2ccc(CN3CCO[C@@H](c4ccccc4)C3)cc2)c1Cl [Example 183, (S)-4-(2′,3′-Dichloro-biphenyl-4-ylmethyl)-2-phenyl-morpholine] | agonistic activity |
| c1ccc(C[C@H]2CN(Cc3ccc(-c4ccccc4)nc3)CCN2)cc1 [Example 186, (S)-3-Benzyl-1-(6-phenyl-pyridin-3-ylmethyl)-piperazine] | agonistic activity |
| c1ccc(-c2ccc(CN3CCO[C@@H](c4ccccc4)C3)cn2)cc1 [Example 188, (S)-2-Phenyl-4-(6-phenyl-pyridin-3-ylmethyl)-morpholine] | agonistic activity |
| Clc1cccc(-c2ccc(CN3CCO[C@@H](c4ccccc4)C3)cn2)c1 [Example 189, (S)-4-[6-(3-Chloro-phenyl)-pyridin-3-ylmethyl]-2-phenyl-morpholine] | agonistic activity |
| Clc1sccc1-c1ccc(CN2CCO[C@@H](c3ccccc3)C2)cc1 [Example 191, (S)-4-[4-(2-Chloro-thiophen-3-yl)-benzyl]-2-phenyl-morpholine] | agonistic activity |
| N#Cc1ccccc1-c1ccc(CN2CCO[C@@H](c3ccccc3)C2)cc1 [Example 192, 4′-((S)-2-Phenyl-morpholin-4-ylmethyl)-biphenyl-2-carbonitrile] | agonistic activity |
| Clc1ccccc1-c1ccc(CN2CCO[C@@H](c3ccccc3)C2)cc1 [Example 193, (S)-4-(2′-Chloro-biphenyl-4-ylmethyl)-2-phenyl-morpholine] | agonistic activity |
| O=C(c1ccccc1)N1CCN(Cc2ccc(-c3ccccc3C(F)(F)F)cc2)CC1Cc1ccccc1 (centres unmarked) [Phenyl-[2-benzyl-4-(2′-trifluoromethyl-biphenyl-4-ylmethyl)-piperazin-1-yl]-methanone] | agonistic activity |

Reference: patent US7595397B2, “Compounds which modulate the CB2 receptor” (Boehringer Ingelheim International GmbH, priority 2005, dated 2009)
